{"source": "patent US12150940B2", "about": "“WASp-protecting small molecules, compositions, methods and uses thereof in the treatment of innate and acquired immune-related disorders or conditions” (BAR ILAN UNIVERSITY, priority 2016, dated 2024)", "target": "T1, WASp (Homo sapiens, UniProt P42768)", "T1 construct": "endogenous in cells; host or cells: primary human platelets from healthy donors", "T1 sequence (P42768 1-502)": "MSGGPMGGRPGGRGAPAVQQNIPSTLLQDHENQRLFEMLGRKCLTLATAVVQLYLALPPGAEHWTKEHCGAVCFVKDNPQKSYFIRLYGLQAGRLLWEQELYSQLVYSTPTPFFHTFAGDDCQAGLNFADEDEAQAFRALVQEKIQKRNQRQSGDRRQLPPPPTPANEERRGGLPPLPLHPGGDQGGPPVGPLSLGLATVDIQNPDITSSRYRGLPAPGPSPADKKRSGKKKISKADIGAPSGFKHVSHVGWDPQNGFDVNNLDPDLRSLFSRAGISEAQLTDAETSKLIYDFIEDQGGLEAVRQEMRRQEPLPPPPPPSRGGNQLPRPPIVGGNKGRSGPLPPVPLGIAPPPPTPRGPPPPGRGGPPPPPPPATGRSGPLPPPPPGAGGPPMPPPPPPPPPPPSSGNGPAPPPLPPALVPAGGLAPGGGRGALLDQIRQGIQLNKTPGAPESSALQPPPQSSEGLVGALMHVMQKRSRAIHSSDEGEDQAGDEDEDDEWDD", "assay": "WASp expression in anti-CD3/anti-CD28-activated PBMCs (western blot)", "assay_type": "cell-based", "description": "FIG. 4C-4D. Freshly-isolated PBMCs were incubated with SMC #6 or control at 37° C. for the indicated times. The PBMCs were either co-stimulated (+) with anti-CD3 and anti-CD28 or left unstimulated (−), followed by lysis. Lysates were analyzed for WASp expression by immunoblotting with anti-WASp and anti-GAPDH as loading control (FIG. 4C). Relative WASp expression was determined by densitometric analysis and is presented in a summarizing graph of FIG. 4D. Error bars represent the SE from the mean. P values were calculated versus DMSO-treated control cells by two-tailed Student's t-test, and is indicated therein. Data are representative of three independent experiments.\nJurkat T-cells (FIG. 5A) or Freshly-isolated PBMCs (FIG. 5B) were incubated for 15 min at 37° C. with either control or the indicated WASp-binding SMCs, followed by co-stimulation with anti-CD3 and anti-CD28 and lysis. Freshly-isolated platelets were incubated for 15 min at 37° C. with either control or the indicated WASp-binding SMCs, followed by stimulation with TRAP-6 (10 μM) and lysis (FIG. 5C). Lysates were analyzed for WASp expression by immunoblotting with anti-WASp and anti-GAPDH as loading control. Western blot is representative of three independent experiments. […] Relative WASp expression was determined by densitometric analysis. Error bars represent the SE from the mean. […]"}
{"smiles": "CC(=O)N[C@H]1C[C@@H](c2ccc3c(c2)nnn3C)O[C@@H](c2ccc(Cl)cc2)C1", "note": "[SMC #6, N-[(2R,4R,6S)-2-(4-chlorophenyl)-6-(1-methylbenzotriazol-5-yl)oxan-4-yl]acetamide]", "values": [{"measurement": "WASp degradation in PBMCs", "setting": "after 15 min of incubation", "value": "attenuated WASp degradation"}, {"measurement": "WASp degradation in PBMCs", "setting": "after 2 h of incubation, compared with 15 min", "value": "more pronounced"}]}
